{"source": "patent US20240325398A1", "about": "“COMBINATION THERAPIES” (Infinity Pharmaceuticals, Inc., priority 2014, published 2024)", "key": {"[1]": {"tested_on": "CDK1, CDK2, CDK4, CDK7 and CDK9", "conditions": "in words; cited from earlier work"}, "HH": {"tested_on": "HH", "assay": "Combination study, ATPLite 72 h, dose matrix (Synergy Score, CI50)", "assay_type": "cell-based", "conditions": "combination with Compound 1", "description": "The method is described as follows.\nAdditive effect is CI=1.0. […] Antagonistic effect is CI>1.0.\nThe Synergy Score is calculated as: […]"}, "HBL-1": {"tested_on": "HBL-1", "assay": "Combination study, ATPLite 72 h, dose matrix (Synergy Score, CI50)", "conditions": "combination with Compound 1, 72 h", "method": "(§1) Cells are thawed from a liquid nitrogen preserved state. Once cells have been expanded and divide at their expected doubling times, screening begins. Cells are seeded in growth media in either black 1536-well or 384-well tissue culture treated plates. Cells are then equilibrated in assay plates via centrifugation and placed in incubators attached to the Dosing Modules at 37° C. for 24 hours before treatment. […] These Tzero (To) plates are read using ultra-sensitive luminescence on Envision plate readers (Perkin Elmer). Treated assay plates are incubated with compound for 72 hours. After 72 hours, plates are developed for endpoint analysis using ATPLite. All data points are collected via automated processes, quality controlled and analyzed using Zalicus software.\n(§2) where T is treated cell count and V is untreated (vehicle) cell count (at 72 hours). I ranges from 0% (when T=V) to 100% (when T=0). […] The measure of effect in the experiment can be the inhibition of cellular response relative to the untreated level (vehicle alone). […] The inhibition ranges from 0% at the untreated level to 100% when T=0. Inhibition levels are negative for agents that actually increase levels. Other effect measures, such as an activity ratio r=T/V may be more appropriate for some assays. When activity ratios (e.g, fold increase over stimulated control) are being used, the effect can be measured using an induction 1=ln(T/V). With this definition, all effect expressions are the same as for inhibition.\n(§3) Growth Inhibition (GI) is used as a measure of cell viability. […] A GI reading of 100% represents complete growth inhibition—T72 compound-treated and T0 vehicle signals are matched. […] A GI reading of 200% represents complete death of all cells in the culture well. Compounds reaching an activity plateau of GI 200% are considered cytotoxic. GI is calculated by applying the following test and equation:\n(§4) Combination analysis data were collected in a 6×6 dose matrix. Synergy is calculated by comparing a combination's response to those of its single compound, against the drug-with-itself dose-additive reference model. Deviations from dose additivity may be assessed visually on an isobologram or numerically with a Combination Index (CI). […] Additive effect is CI=1.0. […] Antagonistic effect is CI>1.0.\n(§5) To measure combination effects in excess of Loewe additivity, a scalar measure to characterize the strength of synergistic interaction termed the Synergy Score is devised. The Synergy Score is calculated as:\n(§6) The fractional inhibition for each component agent and combination point in the matrix is calculated relative to the median of all vehicle-treated control wells. The Synergy Score equation integrates the experimentally-observed activity volume at each point in the matrix in excess of a model surface numerically derived from the activity of the component agents using the Loewe model for additivity. Additional terms in the Synergy Score equation (above) are used to normalize for various dilution factors used for individual agents and to allow for comparison of synergy scores across an entire experiment. The inclusion of positive inhibition gating or an Idata multiplier removes noise near the zero effect level, and biases results for synergistic interactions at that occur at high activity levels.\n(§7) Loewe Volume (Loewe Vol) is used to assess the overall magnitude of the combination interaction in excess of the Loewe additivity model. Loewe Volume is particularly useful when distinguishing synergistic increases in a phenotypic activity (positive Loewe Volume) versus synergistic antagonisms (negative Loewe Volume). […] This model defines additivity as a non-synergistic combination interaction where the combination dose matrix surface should be indistinguishable from either drug crossed with itself. The calculation for Loewe additivity is:"}, "OCI-Ly3": {"tested_on": "OCI-Ly3", "assay": "Combination study, ATPLite 72 h, dose matrix (Synergy Score, CI50)", "conditions": "combination with Compound 1; OCI-Ly3; 72 h", "method": "as §1, §2, §3, §4, §5, §6, §7"}, "U-2932": {"tested_on": "U-2932", "assay": "Combination study, ATPLite 72 h, dose matrix (Synergy Score, CI50)", "conditions": "combination with Compound 1, 72 h"}, "TMD8": {"tested_on": "TMD8", "assay": "Combination study, ATPLite 72 h, dose matrix (Synergy Score, CI50)", "conditions": "combination with Compound 1", "method": "as §1, §2, §3, §4\n(§8) The isobologram was drawn by identifying the locus of concentrations that correspond to crossing the indicated inhibition level. This is done by finding the crossing point for each single agent concentration in a dose matrix across the concentrations of the other single agent. Practically, each vertical concentration CY is held fixed while a bisection algorithm is used to identify the horizontal concentration CX in combination with that vertical dose that gives the chosen effect level in the response surface Z(CX,CY). These concentrations are then connected by linear interpolation to generate the isobologram display. For synergistic interactions, the isobologram contour fall below the additivity threshold and approaches the origin, and an antagonistic interaction would lie above the additivity threshold. The error bars represent the uncertainty arising from the individual data points used to generate the isobologram. The uncertainty for each crossing point is estimated from the response errors using bisection to find the concentrations where Z−αZ(CX,CY) and Z+σZ(CX,CY) cross Icut, where αZ is the standard deviation of the residual error on the effect scale.\nas §5\n(§9) The fractional inhibition for each component agent and combination point in the matrix is calculated relative to the median of all vehicle-treated control wells."}, "OCI-Ly7": {"tested_on": "OCI-Ly7", "assay": "Combination study, ATPLite 72 h, dose matrix (Synergy Score, CI50)", "conditions": "combination with Compound 1, 72 h", "method": "as §1\nThe measure of effect in the experiment can be the inhibition of cellular response relative to the untreated level (vehicle alone). […] The inhibition ranges from 0% at the untreated level to 100% when T=0. Inhibition levels are negative for agents that actually increase levels.\nas §3, §4, §5, §6, §7"}, "SU-DHL-4-epst": {"tested_on": "SU-DHL-4-epst", "assay": "Combination study, ATPLite 72 h, dose matrix (Synergy Score, CI50)", "conditions": "combination with Compound 1, 72 h"}, "DOHH-2": {"tested_on": "DOHH-2", "assay": "Combination study, ATPLite 72 h, dose matrix (Synergy Score, CI50)", "conditions": "combination with Compound 1, 72 h"}, "Farage": {"tested_on": "Farage", "assay": "Combination study, ATPLite 72 h, dose matrix (Synergy Score, CI50)", "conditions": "combination with Compound 1; Farage; 72 h", "method": "as §1, §2, §3, §4, §8, §5, §9"}, "SU-DHL-10-epst": {"tested_on": "SU-DHL-10-epst", "assay": "Combination study, ATPLite 72 h, dose matrix (Synergy Score, CI50)", "conditions": "combination with Compound 1, 72 h"}, "RL": {"tested_on": "RL", "assay": "Combination study, ATPLite 72 h, dose matrix (Synergy Score, CI50)", "conditions": "combination with Compound 1, 72 h", "method": "as §1, §2, §3, §4, §5, §6\n(§10) Loewe Volume (Loewe Vol) is used to assess the overall magnitude of the combination interaction in excess of the Loewe additivity model. Loewe Volume is particularly useful when distinguishing synergistic increases in a phenotypic activity (positive Loewe Volume) versus synergistic antagonisms (negative Loewe Volume). […] This model defines additivity as a non-synergistic combination interaction where the combination dose matrix surface should be indistinguishable from either drug crossed with itself."}, "KARPAS-422": {"tested_on": "KARPAS-422", "assay": "Combination study, ATPLite 72 h, dose matrix (Synergy Score, CI50)", "conditions": "combination with Compound 1, 72 h"}, "WSU-NHL": {"tested_on": "WSU-NHL", "assay": "Combination study, ATPLite 72 h, dose matrix (Synergy Score, CI50)", "conditions": "combination with Compound 1, 72 h"}, "KARPAS-299": {"tested_on": "KARPAS-299", "assay": "Combination study, ATPLite 72 h, dose matrix (Synergy Score, CI50)", "conditions": "combination with Compound 1"}, "GRANTA-519": {"tested_on": "GRANTA-519", "assay": "Combination study, ATPLite 72 h, dose matrix (Synergy Score, CI50)", "conditions": "combination with Compound 1", "method": "as §1, §2, §3, §4, §5, §6, §10"}, "Jeko-1": {"tested_on": "Jeko-1", "assay": "Combination study, ATPLite 72 h, dose matrix (Synergy Score, CI50)", "conditions": "combination with Compound 1"}, "Mino": {"tested_on": "Mino", "assay": "Combination study, ATPLite 72 h, dose matrix (Synergy Score, CI50)", "conditions": "combination with Compound 1"}, "NCI-H929": {"tested_on": "NCI-H929", "assay": "Combination study, ATPLite 72 h, dose matrix (Synergy Score, CI50)", "conditions": "combination with Compound 1"}, "[2]": {"assay": "Combination study, ATPLite 72 h, dose matrix (Synergy Score, CI50)", "conditions": "combination with Compound 1; OPM-2"}, "OMP-2": {"tested_on": "OMP-2", "assay": "Combination study, ATPLite 72 h, dose matrix (Synergy Score, CI50)", "conditions": "combination with Compound 1; OPM-2"}, "RPMI-8226": {"tested_on": "RPMI-8226", "assay": "Combination study, ATPLite 72 h, dose matrix (Synergy Score, CI50)", "conditions": "combination with Compound 1"}}, "data": [{"smiles": "CC1(C)/C(=C2/C(=O)Nc3ccc(S(N)(=O)=O)cc32)Nc2ccccc21", "note": "[ZK-304709, (Z)-3,3-dimethyl-2′-oxo-[2,3′-biindolinylidene]-5′-sulfonamide]", "values": [{"measurement": "IC50 values, CDK1, CDK2, CDK4, CDK7 and CDK9", "setting": "[1]", "value": "nanomolar range"}]}, {"smiles": "CC(=O)Nc1cccc(-n2c(=O)n(C3CC3)c(=O)c3c(Nc4ccc(I)cc4F)n(C)c(=O)c(C)c32)c1", "note": "[trametinib, N-(3-{3-cyclopropyl-5-[(2-fluoro-4-iodophenyl)amino]-6,8-dimethyl-2,4,7-trioxo-3,4,6,7-tetrahydropyrido[4,3-d]pyrimidin-1(2H)-yl}phenyl)acetamide]", "values": [{"measurement": "CI50 growth inhibition", "setting": "HH", "value": "S (S=0.01 to <0.5)"}, {"measurement": "CI50 inhibition", "setting": "HH", "value": "S (S=0.01 to <0.5)"}, {"measurement": "Synergy Score growth inhibition", "setting": "HH", "value": "A3 (A3=>3)"}, {"measurement": "Synergy Score inhibition", "setting": "HH", "value": "A2 (A2=1 to <3)"}, {"measurement": "CI50 growth inhibition", "setting": "HBL-1", "value": "U (U=0.7 to <1)"}, {"measurement": "Synergy Score growth inhibition", "setting": "HBL-1", "value": "A2 (A2=1 to <3)"}, {"measurement": "Synergy Score inhibition", "setting": "HBL-1", "value": "A1 (A1=0.0001 to <1)"}, {"measurement": "CI50 growth inhibition", "setting": "OCI-Ly3", "value": "W (W=≥1)"}, {"measurement": "Synergy Score growth inhibition", "setting": "OCI-Ly3", "value": "A2 (A2=1 to <3)"}, {"measurement": "Synergy Score inhibition", "setting": "OCI-Ly3", "value": "A1 (A1=0.0001 to <1)"}, {"measurement": "CI50 growth inhibition", "setting": "U-2932", "value": "U (U=0.7 to <1)"}, {"measurement": "Synergy Score growth inhibition", "setting": "U-2932", "value": "A1 (A1=0.0001 to <1)"}, {"measurement": "Synergy Score inhibition", "setting": "U-2932", "value": "A1 (A1=0.0001 to <1)"}, {"measurement": "CI50 growth inhibition", "setting": "TMD8; TMD8, 72 h", "value": "S (S=0.01 to <0.5)"}, {"measurement": "CI50 inhibition", "setting": "TMD8; TMD8, 72 h", "value": "S (S=0.01 to <0.5)"}, {"measurement": "Synergy Score growth inhibition", "setting": "TMD8; TMD8, 72 h", "value": "A3 (A3=>3)"}, {"measurement": "Synergy Score inhibition", "setting": "TMD8; TMD8, 72 h", "value": "A3 (A3=>3)"}, {"measurement": "effect of the combination (isobologram)", "setting": "TMD8; TMD8 DLBCL cell line, FIG. 1-3", "value": "synergistic effect"}, {"measurement": "Synergy Score growth inhibition", "setting": "OCI-Ly7", "value": "A1 (A1=0.0001 to <1)"}, {"measurement": "Synergy Score inhibition", "setting": "OCI-Ly7", "value": "A1 (A1=0.0001 to <1)"}, {"measurement": "CI50 growth inhibition", "setting": "SU-DHL-4-epst", "value": "S (S=0.01 to <0.5)"}, {"measurement": "CI50 inhibition", "setting": "SU-DHL-4-epst", "value": "S (S=0.01 to <0.5)"}, {"measurement": "Synergy Score growth inhibition", "setting": "SU-DHL-4-epst", "value": "A3 (A3=>3)"}, {"measurement": "Synergy Score inhibition", "setting": "SU-DHL-4-epst", "value": "A2 (A2=1 to <3)"}, {"measurement": "CI50 growth inhibition", "setting": "DOHH-2", "value": "U (U=0.7 to <1)"}, {"measurement": "CI50 inhibition", "setting": "DOHH-2", "value": "W (W=≥1)"}, {"measurement": "Synergy Score growth inhibition", "setting": "DOHH-2", "value": "A3 (A3=>3)"}, {"measurement": "Synergy Score inhibition", "setting": "DOHH-2", "value": "A2 (A2=1 to <3)"}, {"measurement": "CI50 growth inhibition", "setting": "Farage", "value": "W (W=≥1)"}, {"measurement": "CI50 inhibition", "setting": "Farage", "value": "U (U=0.7 to <1)"}, {"measurement": "Synergy Score growth inhibition", "setting": "Farage", "value": "A2 (A2=1 to <3)"}, {"measurement": "Synergy Score inhibition", "setting": "Farage", "value": "A2 (A2=1 to <3)"}, {"measurement": "CI50 growth inhibition", "setting": "SU-DHL-10-epst", "value": "S (S=0.01 to <0.5)"}, {"measurement": "CI50 inhibition", "setting": "SU-DHL-10-epst", "value": "S (S=0.01 to <0.5)"}, {"measurement": "Synergy Score growth inhibition", "setting": "SU-DHL-10-epst", "value": "A3 (A3=>3)"}, {"measurement": "Synergy Score inhibition", "setting": "SU-DHL-10-epst", "value": "A3 (A3=>3)"}, {"measurement": "Synergy Score growth inhibition", "setting": "RL", "value": "A1 (A1=0.0001 to <1)"}, {"measurement": "Synergy Score inhibition", "setting": "RL", "value": "A1 (A1=0.0001 to <1)"}, {"measurement": "CI50 growth inhibition", "setting": "KARPAS-422", "value": "S (S=0.01 to <0.5)"}, {"measurement": "CI50 inhibition", "setting": "KARPAS-422", "value": "S (S=0.01 to <0.5)"}, {"measurement": "Synergy Score growth inhibition", "setting": "KARPAS-422", "value": "A2 (A2=1 to <3)"}, {"measurement": "Synergy Score inhibition", "setting": "KARPAS-422", "value": "A2 (A2=1 to <3)"}, {"measurement": "CI50 growth inhibition", "setting": "WSU-NHL", "value": "T (T=0.5 to <0.7)"}, {"measurement": "CI50 inhibition", "setting": "WSU-NHL", "value": "S (S=0.01 to <0.5)"}, {"measurement": "Synergy Score growth inhibition", "setting": "WSU-NHL", "value": "A3 (A3=>3)"}, {"measurement": "Synergy Score inhibition", "setting": "WSU-NHL", "value": "A3 (A3=>3)"}, {"measurement": "Synergy Score growth inhibition", "setting": "KARPAS-299", "value": "A1 (A1=0.0001 to <1)"}, {"measurement": "Synergy Score inhibition", "setting": "KARPAS-299", "value": "A1 (A1=0.0001 to <1)"}, {"measurement": "CI50 growth inhibition", "setting": "GRANTA-519", "value": "S (S=0.01 to <0.5)"}, {"measurement": "Synergy Score growth inhibition", "setting": "GRANTA-519", "value": "A2 (A2=1 to <3)"}, {"measurement": "Synergy Score inhibition", "setting": "GRANTA-519", "value": "A1 (A1=0.0001 to <1)"}, {"measurement": "CI50 growth inhibition", "setting": "Jeko-1", "value": "U (U=0.7 to <1)"}, {"measurement": "CI50 inhibition", "setting": "Jeko-1", "value": "W (W=≥1)"}, {"measurement": "Synergy Score growth inhibition", "setting": "Jeko-1", "value": "A1 (A1=0.0001 to <1)"}, {"measurement": "Synergy Score inhibition", "setting": "Jeko-1", "value": "A1 (A1=0.0001 to <1)"}, {"measurement": "CI50 growth inhibition", "setting": "Mino", "value": "S (S=0.01 to <0.5)"}, {"measurement": "CI50 inhibition", "setting": "Mino", "value": "S (S=0.01 to <0.5)"}, {"measurement": "Synergy Score growth inhibition", "setting": "Mino", "value": "A3 (A3=>3)"}, {"measurement": "Synergy Score inhibition", "setting": "Mino", "value": "A3 (A3=>3)"}, {"measurement": "CI50 growth inhibition", "setting": "NCI-H929", "value": "T (T=0.5 to <0.7)"}, {"measurement": "CI50 inhibition", "setting": "NCI-H929", "value": "S (S=0.01 to <0.5)"}, {"measurement": "Synergy Score growth inhibition", "setting": "NCI-H929", "value": "A3 (A3=>3)"}, {"measurement": "Synergy Score inhibition", "setting": "NCI-H929", "value": "A2 (A2=1 to <3)"}, {"measurement": "CI50 growth inhibition", "setting": "[2]", "value": "T (T=0.5 to <0.7)"}, {"measurement": "CI50 inhibition", "setting": "OMP-2", "value": "W (W=≥1)"}, {"measurement": "Synergy Score growth inhibition", "setting": "OMP-2", "value": "A2 (A2=1 to <3)"}, {"measurement": "Synergy Score inhibition", "setting": "OMP-2", "value": "A2 (A2=1 to <3)"}, {"measurement": "CI50 growth inhibition", "setting": "RPMI-8226", "value": "U (U=0.7 to <1)"}, {"measurement": "Synergy Score growth inhibition", "setting": "RPMI-8226", "value": "A2 (A2=1 to <3)"}, {"measurement": "Synergy Score inhibition", "setting": "RPMI-8226", "value": "A1 (A1=0.0001 to <1)"}]}]}
